Experimental data taken from patent US12377104B1, “Methods for treating a fatty liver disease” (Madrigal Pharmaceuticals, Inc., priority 2024, dated 2025).

What was measured:
[1] = tested on: adults with biopsy-confirmed NASH; assay: MAESTRO-NASH: biomarkers PRO-C3 and P3NP/ELF; type: in vivo, human
Description: Pearson's correlation was used to examine the association between 2 PRO-C3 enzyme-linked immunosorbent assay (ELISA) assay methods (ELISA GEN1 and ELISA GEN2, NORDIC BIOSCIENCE) using PRO-C3 baseline data (N=919). The remainder of the analyses used the ELISA GEN2 assay. Mean SD or SE and median [Q1, Q3]were calculated to summarize PRO-C3 data. […] Mean difference with 95% CI and nominal P-values were obtained from the ANCOVA. Scatterplots and Spearman's correlations with 95% CIs were used to assess the associations between P3NP/ELF and PRO-C3 both at baseline and change from baseline at Week 52.

[2] = tested on: NASH liver fibrosis; assay: MAESTRO-NASH: qFibrosis assessment of biopsies; type: in vivo, human; conditions: Week 52 biopsy, compared with placebo
Text: Fibrosis stage predicts clinical outcomes in NASH/metabolic-associated steatohepatitis (MASH), with liver biopsies as the regulatory standard. Ordinal fibrosis staging on stained slides may limit the ability to visualize dynamic fibrosis features throughout the liver lobule. qFibrosis, an AI-driven fibrosis assessment methodology that utilizes laser driven (SHG) collagen detection on unstained biopsy slides, has identified 30 specific fibrotic features on NASH liver biopsies that may be predictive of liver-related clinical outcomes, progression to cirrhosis and decompensated cirrhosis based on the SteatoSITE population. Non-invasive measures such as baseline MRE or FibroScan VCTE, ELF, and other non-invasive fibrosis markers also predict progression to cirrhosis and decompensated cirrhosis. SteatoSITE contains integrated clinical and pathological data from 940 cases across the NAFLD spectrum with outcome data from electronic health record and pathologist-assigned fibrosis stage and RNA on baseline biopsy. […] Baseline and Week 52 biopsies from MAESTRO-NASH were analyzed for 30 qFibrosis features identified by SteatoSITE that are associated with progression of NASH fibrosis to liver decompensation, and six features with the strongest correlations between baseline pathologist scoring and non-invasive tests were identified.

[3] = F1B patients only, 80 mg, Week 52
[4] = F1B patients only, 100 mg, Week 52
[5] = F2 patients only, 80 mg, Week 52
[6] = F2 patients only, 100 mg, Week 52
[7] = F3 patients only, 80 mg, Week 52
[8] = F3 patients only, 100 mg, Week 52
[9] = Overall, 80 mg, Week 52, ELISA GEN2
[10] = Overall, 100 mg, Week 52, ELISA GEN2

## CC(C)c1cc(Oc2c(Cl)cc(-n3nc(C#N)c(=O)[nH]c3=O)cc2Cl)n[nH]c1=O [Resmetirom, 2-(3,5-dichloro-4-((5-isopropyl-6-oxo-1,6-dihydropyridazin-3-yl)oxy)phenyl)-3,5-dioxo-2,3,4,5-tetrahydro-1,2,4-triazine-6-carbonitrile]
[1]; 80 mg, Week 52
  PRO-C3 change from baseline: −17.93 (4.61)
  mean difference vs placebo in PRO-C3 change from baseline: −16.9
[1]; 100 mg, Week 52
  PRO-C3 change from baseline: −23.05 (4.76)
  mean difference vs placebo in PRO-C3 change from baseline: −22.1
[1]; [3]
  Change from Baseline in PRO-C3, Mean: -0.69 ng/mL
  Change from Baseline in PRO-C3, Median: 4.30 ng/mL
[1]; [4]
  Change from Baseline in PRO-C3, Mean: -7.20 ng/mL
  Change from Baseline in PRO-C3, Median: 0.40 ng/mL
[1]; [5]
  Change from Baseline in PRO-C3, Mean: -11.51 ng/mL
  Change from Baseline in PRO-C3, Median: -13.65 ng/mL
[1]; [6]
  Change from Baseline in PRO-C3, Mean: -15.79 ng/mL
  Change from Baseline in PRO-C3, Median: -10.10 ng/mL
[1]; [7]
  Change from Baseline in PRO-C3, Mean: -22.42 ng/mL
  Change from Baseline in PRO-C3, Median: -11.90 ng/mL
[1]; [8]
  Change from Baseline in PRO-C3, Mean: -27.42 ng/mL
  Change from Baseline in PRO-C3, Median: -18.30 ng/mL
[1]; F3 patients, 80 mg, Week 52
  PRO-C3 change from baseline: −22.42 (6.38)
[1]; F3 patients, 100 mg, Week 52
  PRO-C3 change from baseline: −27.42 (6.72)
[1]; [9]
  Change from Baseline in PRO-C3, Mean: -17.93 ng/mL
  Change from Baseline in PRO-C3, Median: -11.95 ng/mL
[1]; [10]
  Change from Baseline in PRO-C3, Mean: -23.05 ng/mL
  Change from Baseline in PRO-C3, Median: -13.40 ng/mL
[2]
  total qFibrosis scores: highly significant improvement in fibrosis
